Data reported in patent US20240360154A1, “AROYL SUBSTITUTED TRICYCLIC COMPOUND, PREPARATION METHOD THEREFOR AND USE THEREOF” (GENFLEET THERAPEUTICS (SHANGHAI) INC., priority 2020, published 2024).

Columns and labels:
p-BTK (WT) = p-BTK (WT) (Homo sapiens (Human), UniProt Q06187); assay: p-BTK cell experiment, HEK293 transfected with WT-BTK plasmid (P-BTK Y223 sandwich ELISA); assay type: cell-based; conditions: HEK293 cells, compound cultured for two hours
Method: (§1) Day 1: HEK293 cells (ADDEXBIO, T0011001) at logarithmic growth phase were taken, digested with enzyme EDTA, collected and counted, and 2E6 cells were inoculated in a 10 cm culture dish and cultured overnight. Day 2: A mixed solution containing 6 μg of WT-BTK/C481S-BTK plasmid and 18 μL of FuGENE HD transfection reagent was prepared by using 1000 μL of Opti-MEM. After standing at room temperature for 10 minutes, the mixed solution was slowly added to the culture dish with a pipettor and cultured overnight. Day 3: The culture dish was taken out, and the cells were digested with enzyme EDTA, collected and counted, and 1E4 cells were inoculated in a 96-well cell culture plate and cultured overnight. A 3.16-fold gradient concentration stock solution of 1000× compound was prepared using DMSO, and placed at room temperature. Day 4: A prepared 1000× compound stock solution was taken, and diluted 200-fold to 5× compound stock solution with culture medium. 5× compound stock solution was added to each cell culture well with a final concentration of 1× compound stock solution and a DMSO content of 0.1%. DMSO was used as an experimental control. After the compound was added and cultured for two hours, the residual culture medium was removed. 100 μL of cell lysis buffer was added to each well, stood on ice for 30 minutes, and ultrasonically lysed with ice water for 5 minutes. After diluting the cell lysate in proportion, 80 μL of the mixture was transfer to an ELISA plate, and 80 μL of cell lysis buffer was added to the blank well. After incubating in an incubator at 37° C. for 2 hours, the plate was taken and the antibody incubation and color development termination operation were completed according to the instructions of Pathscan P-BTK (Y223) Sandwich ELISA Kit (Cell Signaling #23843 CA), and finally the OD value was read. The inhibition rate of the compound (%)=(ODcontrol−ODcompound)/(ODcontrol−ODblank)×100% was calculated. The compound gradient dilution concentration and the corresponding cell proliferation inhibition rate were fit by using Prism 8 four-parameter method, and IC50 value was calculated.

OCI-LY10 cells = assay: OCI-LY10 proliferation inhibition experiment; assay type: cell-based; conditions: human diffuse large B lymphoma cells, three days incubation
Method: TMD-8 cells are human diffuse large B lymphoma (Mingzhou Bio, MZ-0832), cultured in 10% FBS+1% PS 1640 medium; OCI-LY10 is human diffuse large B lymphoma (BeNa Culture Collection, BNCC337742), cultured in 10% FBS+1% PS IMDM. Day 1: Cells at logarithmic growth phase were taken, counted and inoculated 600 TMD-8 or 2000 OCI-LY10 cells in a 384-well cell culture plate and cultured overnight. Day 2: A 3-fold gradient concentration stock solution of 400× compound was prepared with DMSO, and diluted 40-fold to a 10× compound stock solution with culture medium. The 10× compound stock solution was added to each cell culture well with a final concentration of 1× compound stock solution and a DMSO content of 0.25%. DMSO was used as experimental control, and culture medium was used as blank control. The incubation was continued for three days after compound addition. On the fifth day, 25 μL of […] was added to each well, mixed well and incubated for 10 minutes, then the chemiluminescence value (RLU value) was read. The cell proliferation inhibition rate (%)=(RLUcontrol−RLUcompound)/(RLUcontrol−RLUblank)×100% was calculated. The compound gradient dilution concentration and the corresponding cell proliferation inhibition rate were fit by using XLFit four-parameter method, and IC50 value was calculated.

TMD-8 cells = assay: TMD-8 proliferation inhibition experiment; assay type: cell-based; conditions: human diffuse large B lymphoma cells, three days incubation
Outline: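 Log-phase cells seeded in 384-well plates (600 TMD-8 in RPMI 1640, 2000 OCI-LY10 in IMDM, both 10% FBS), then exposed one day later to 3-fold compound dilutions at 0.25% DMSO for three days. ADP-Glo luminescence read; inhibition versus DMSO and medium-only blank, IC50 by four-parameter fit.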

BTK (C481S) = BTK (C481S) (Homo sapiens (Human), UniProt Q06187, C481S); assay: BTK C481S enzyme experiment (ADP-Glo kinase assay); assay type: biochemical; conditions: 10 nM BTK C481S, ATP 125 μM, Poly(Glu4, Tyr1), 90 minutes at 20° C.
Sequence of BTK (C481S) (Q06187 whole entry C481S): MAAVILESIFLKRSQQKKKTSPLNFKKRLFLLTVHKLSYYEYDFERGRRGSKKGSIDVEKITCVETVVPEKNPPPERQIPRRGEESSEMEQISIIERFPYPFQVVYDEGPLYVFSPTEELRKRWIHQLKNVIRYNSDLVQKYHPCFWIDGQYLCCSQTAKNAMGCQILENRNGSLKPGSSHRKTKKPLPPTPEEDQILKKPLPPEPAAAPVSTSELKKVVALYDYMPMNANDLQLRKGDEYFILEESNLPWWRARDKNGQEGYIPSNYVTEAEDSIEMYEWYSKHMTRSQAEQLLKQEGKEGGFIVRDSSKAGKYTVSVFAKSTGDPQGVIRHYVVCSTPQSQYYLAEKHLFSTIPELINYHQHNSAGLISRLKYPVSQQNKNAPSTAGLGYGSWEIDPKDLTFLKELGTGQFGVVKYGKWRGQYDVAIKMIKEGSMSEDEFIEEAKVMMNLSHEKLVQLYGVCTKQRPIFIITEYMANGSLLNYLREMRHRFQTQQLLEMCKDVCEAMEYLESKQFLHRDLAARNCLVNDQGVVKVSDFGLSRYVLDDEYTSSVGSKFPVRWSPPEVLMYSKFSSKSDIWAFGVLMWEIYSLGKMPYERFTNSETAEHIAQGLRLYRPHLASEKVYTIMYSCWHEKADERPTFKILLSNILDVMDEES
Outline: (§2)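 Wild-type or C481S BTK, added as 2× solution at 10 nM, preincubated 10 min with 3-fold compound dilutions in 50 mM HEPES pH 7.5, 10 mM MgCl2, 2 mM DTT, 0.0015% Brij-35. ADP-Glo luminescence norm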

BTK = BTK (Homo sapiens (Human), UniProt Q06187); assay: BTK enzyme experiment (ADP-Glo kinase assay); assay type: biochemical; conditions: 10 nM BTK, ATP 125 μM, Poly(Glu4, Tyr1), 90 minutes at 20° C.; read-out: BTK(WT) IC50
Sequence of BTK (Q06187 whole entry): as the sequence (Q06187 whole entry C481S) above, with S481C counted along it
Outline: as §2

p-BTK (C481S) = p-BTK (C481S) (Homo sapiens (Human), UniProt Q06187, C481S); assay: p-BTK cell experiment, HEK293 transfected with C481S-BTK plasmid (P-BTK Y223 sandwich ELISA); assay type: cell-based; conditions: HEK293 cells, compound cultured for two hours
Sequence of p-BTK (C481S) (Q06187 whole entry C481S): as the sequence (Q06187 whole entry C481S) above
Method: as §1

Sequence of p-BTK (WT) (Q06187 whole entry): as the sequence (Q06187 whole entry C481S) above, with S481C counted along it

IC50 (p-BTK (WT)) [nM]	IC50 (OCI-LY10 cells) [nM]	IC50 (BTK (C481S)) [nM]	IC50 (BTK) [nM]	IC50 (p-BTK (C481S)) [nM]	Compound	IC50 (TMD-8 cells) [nM]	IC50 (TMD-8 cells; Homo sapiens, TMD8, 72 h) [nM]
123	238	12.3	19.4	72.8	CN1CCC2(C1)Nc1c(cnc3[nH]cc(C(=O)c4ccc(Oc5ccccc5)cc4Cl)c13)NC2=O (centres unmarked) [Z2]	188	
17		12.5	10.6	39.2	[2H]C([2H])([2H])OC[C@]1(C([2H])([2H])[2H])Nc2c(cnc3[nH]cc(C(=O)c4ccc(Oc5ccccc5)cc4Cl)c23)NC1=O [Z161, (S)-9-(2-chloro-4-phenoxybenzoyl)-2-((methoxy-d3)methyl)-2-(methyl-d3)-1,2,4,7-tetrahydro-3H-pyrrolo[3′,2′:5,6]pyrido[3,4-b]pyrazin-3-one]		72.8
10.2		9	8.5	20.1	COC[C@]1(C)Nc2c(cnc3[nH]cc(C(=O)c4ccc(Oc5cc(F)ccc5OC)cc4Cl)c23)NC1=O [Z169, (S)-9-(2-chloro-4-(5-fluoro-2-methoxyphenoxy)benzoyl)-2-(methoxymethyl)-2-methyl-1,2,4,7-tetrahydro-3H-pyrrolo[3′,2′:5,6]pyrido[3,4-b]pyrazin-3-one]		46.9
20.5		5.1	11.5	22.4	O=C(c1ccc(Oc2ccccc2)cc1Cl)c1c[nH]c2ncc3c(c12)NC1(CCC(N2CCOCC2)C1)C(=O)N3 (centres unmarked) [Z141, 9′-(2-chloro-4-phenoxybenzoyl)-3-morpholino-4′,7′-dihydrospiro[cyclopentane-1,2′-pyrrolo[3′,2′:5,6]pyrido[3,4-b]pyrazin]-3′(1′H)-one]		58.4

Continued, molecule first:

Compound	IC50 (p-BTK (WT)) [nM]	IC50 (OCI-LY10 cells) [nM]	IC50 (BTK (C481S)) [nM]	IC50 (BTK) [nM]	IC50 (p-BTK (C481S)) [nM]	IC50 (TMD-8 cells) [nM]	IC50 (TMD-8 cells; Homo sapiens, TMD8, 72 h) [nM]
CN1CC[C@@]2(C1)Nc1c(cnc3[nH]cc(C(=O)c4ccc(Oc5ccccc5)cc4Cl)c13)NC2=O (single isomer, unassigned) [Z2-2]	41.5	307	10.9	25.4	56.6	266	
CN1CC[C@]2(C1)Nc1c(cnc3[nH]cc(C(=O)c4ccc(Oc5ccccc5)cc4Cl)c13)NC2=O (single isomer, unassigned) [Z2-1]	29.2	200	9.2	19	50	123	
O=C(c1ccc(Oc2ccccc2)cc1Cl)c1c[nH]c2ncc3c(c12)N[C@]1(CC[C@@H](O)C1)C(=O)N3 (single isomer, unassigned) [Z24-c]	19.6		3	3.2	16.2	50.6	
